The source of these data is paper PMC6321231, “Synthesis and Anti-Inflammatory Activities of Phloroglucinol-Based Derivatives” (Molecules, 2018).

The test system of one assay is NF-κB. Nature of the assay: Assay for NF-κB inhibition (luciferase reporter) in PMA-induced SW1353 cells. In kind it is cell-based. The note with it: PMA-induced human chondrosarcoma cells (SW1353); NA = not active at 100 µM. How it is done: The assay was performed in human chondrosarcoma cells (SW1353, obtained from American Type Culture Collection (ATCC), Manassas, VA, USA). Cells were cultured in 1:1 mixture of DMEM/F12 supplemented with 10% fetal bovine serum (FBS), 100 U/mL penicillin G sodium, and 100 μg/mL streptomycin at 37 °C in an atmosphere of 5% CO2 and 95% humidity. Cells (1.2 × 10^7) were washed once in an antibiotic and FBS-free DMEM/F12, and then resuspended in 500 μL of antibiotic-free DMEM/F12 containing 2.5% FBS. NF-κB luciferase plasmid construct was added to the cell suspension at a concentration of 50 μg/mL and incubated for 5 min at room temperature. The cells were electroporated at 160 V and one 70-ms pulse using BTX disposable cuvettes model 640 (4-mm gap) in a BTX Electro Square Porator T 820 (BTX I, San Diego, CA, USA). The transfected cells were plated to the wells of 96-well plates at a density of 1.25 × 10^5 cells per well. After 24 h, cells were treated with different concentrations of test compound for 30 min before the addition of PMA (70 ng/mL) and incubated for 8 h. Luciferase activity was measured using the Luciferase Assay kit (Promega). Light output was detected on a SpectraMax plate reader. Percent inhibition of luciferase activity was calculated as compared to vehicle control, and IC50 values were obtained from concentration response curves. Parthenolide was used as positive control.

In a further assay the test system is Cryptococcus neoformans. More on the design: method as in PMID 27584935. The note with it: against Cryptococcus neoformans; cited from earlier work.
The next assay has as its system iNOS. Nature of the assay: Assay for iNOS inhibition (nitrite by Griess reagent) in LPS-induced macrophages. In kind it is cell-based. The note with it: Mus musculus, RAW264.7; LPS-induced RAW 264.7 macrophages; NA = not active at 50 µM. Here is the method: The assay was performed in mouse macrophages (RAW264.7, obtained from ATCC)) cultured in phenol red free RPMI medium supplemented with 10% bovine calf serum and 100 U/mL penicillin G sodium, and 100 μg/mL streptomycin at 37 °C in an atmosphere of 5% CO2 and 95% humidity. Cells were seeded in 96-well plates (50,000 cells/well) and incubated for 24 h for a confluency of 75% or more. Test samples diluted in serum free medium were added, and after 30 min of incubation, LPS (5 μg/mL) was added and cells were further incubated for 24 h. The concentration of nitric oxide (NO) was determined by measuring the level of nitrite in the cell culture supernatant by using Griess reagent. Percent inhibition of nitrite production by the test compound was calculated in comparison to the vehicle control. IC50 values were obtained from concentration response curves. Parthenolide was used as a positive control.

Consider `CC(=O)c1c(O)cc(O)c(C(C)=O)c1O` [Compound 2], for which the results for the IC50 in the assay on NF-κB and in the assay with iNOS were 34 ± 8.5 µM and 19 ± 1.4 µM, respectively. Moreover, the “in vitro antifungal activity” value with Cryptococcus neoformans was “potent”. In the case of `CC(C)C(=O)c1c(O)cc(O)cc1O` [Compound 3], in the assay with NF-κB, the IC50 turned out to be 90 ± 14.1 µM. On to `CC(C)C(=O)c1c(O)cc(O)c(Cc2ccc(Br)cc2)c1O` [Compound 4, 1-[3-(4-Bromo-benzyl)-2,4,6-trihydroxy-phenyl]-2-methyl-propan-1-one], for which the IC50 with NF-κB was 37.5 ± 3.5 µM; with iNOS, 19.5 ± 0.7 µM. The corresponding values for `COCOc1cc(OCOC)c(C(=O)C(C)C)c(O)c1Cc1ccc(Br)cc1` [Compound 5, 1-[3-(4-Bromo-benzyl)-2-hydroxy-4,6-bis-methoxymethoxy-phenyl]-2-methyl-propan-1-one] are 29 ± 15.5 µM and 50 µM. Regarding `CC(C)C(=O)c1c(O)cc(O)c(Cc2ccc(Cc3c(O)cc(O)c(C(=O)C(C)C)c3O)cc2)c1O` [Compound 6, 2-Methyl-1-{2,4,6-trihydroxy-3-[4-(2,4,6-trihydroxy-3-isobutyryl-benzyl)-benzyl]-phenyl}-propan-1-one], the IC50 amounted to 85 ± 21.2 µM with NF-κB and 19 ± 1.4 µM in the assay with iNOS.

The molecule `CC(C)C(=O)c1c(O)cc(O)c(Cc2ccc(CN3CCCCC3)cc2)c1O` [Compound 7, 2-Methyl-1-[2,4,6-trihydroxy-3-(4-piperidin-1-ylmethyl-benzyl)-phenyl]-propan-1-one] had an IC50 in the assay with iNOS of 49 ± 1.4 µM.

Regarding `C=C1C(=O)O[C@H]2[C@H]1CC/C(C)=C/CC[C@@]1(C)O[C@@H]21` [Parthenolide, reference compound], the IC50 came to 20.5 ± 2.9 µM in the assay on NF-κB and 2.5 ± 0.2 µM in the assay with iNOS.
